Measured values as given in patent US10357536B2, “Anti-pathogenic methods” (Hexima Limited, priority 2012, dated 2019).
Entries after “also recorded” stand apart in the source; their conditions may differ. No end group written: not given here.

Tests used:
Fgr hyphae = type: cell-based, Fusarium graminearum
hyphal cells = type: cell-based
Fov hyphae = type: cell-based, Fusarium oxysporum f. sp vasinfectum

What does the source list for “HXL001: Class I plant defensin, Zea mays, mature domain SEQ ID NO: 3 (RHCLSQSHRFKGLCMSSNNCANVCETQNFPGGECKAEGATRKCFCKKIC; HXL001 Zea mays mature domain)”?
Permeability index (Fgr hyphae): 0.9; Permeabilizing (hyphal cells): Yes

How did the Permeability index (Fgr hyphae) turn out when “HXL002: Class I plant defensin, Triticum aestivum, mature domain SEQ ID NO: 6 (RDCLSQSHKFKGACLSSSNCAAVCRTENFPDGECHTHNFARKCFCKRAC; HXL002 Triticum aestivum mature domain)” was run?
The Permeability index was 1.0.

What about the “permeabilization of Fgr hyphae (SYTOX green uptake), in words” value (“permeabilization of Fgr hyphae” for short) (Fgr hyphae) of the same substance?
Its value is “significantly more permeabilisation of Fgr hyphae; also recorded: permeabilizing”.

And the Permeability index (Fov hyphae)?
The Permeability index was 0.9.

And the “permeabilization of Fov hyphae (SYTOX green uptake), in words” value (Fov hyphae)?
Its value is “able to permeabilize Fov hyphae; also recorded: permeabilizing”.

What about the Permeabilizing (hyphal cells) of the same substance?
The Permeabilizing was “Yes”.

Which results are given for “HXL004: Class I plant defensin, Nicotiana benthamiana, mature domain SEQ ID NO: 12 (RTCESQSHRFKGLCFSRSNCASVCHTEGFNGGHCRGFRRRCFCTRHC; HXL004 Nicotiana benthamiana mature domain aa)”?
Permeability index (Fgr hyphae): 1.6; permeabilization of Fgr hyphae (SYTOX green uptake), in words (Fgr hyphae): significantly more permeabilisation of Fgr hyphae; also recorded: permeabilizing; Permeabilizing (hyphal cells): Yes

Which Permeabilizing (hyphal cells) does the source give for “HXL005: Class I plant defensin, Taraxacum kok-saghyz, mature domain SEQ ID NO: 15 (KMCQTTSHAFSCVNDSGCSGSCEKQGFASGKCDGVRRRCTCYKKC; HXL005 Taraxacum kok-saghyz mature domain)” here?
Its Permeabilizing is “No”.

What does the source list for “HXL007: Class I plant defensin, Cyamopsis tetragonoloba, mature domain SEQ ID NO: 21 (RTCESLADTYRGPCFTDGSCDDHCKNKEHLISGRCRNDFRCWCTRNC; HXL007 Cyamopsis tetragonoloba mature domain)”?
Permeability index (Fov hyphae): 1.2; permeabilization of Fov hyphae (SYTOX green uptake), in words (Fov hyphae): able to permeabilize Fov hyphae; also recorded: permeabilizing; Permeabilizing (hyphal cells): Yes

What does the source list for “HXL008: Class I plant defensin, Picramnia pentandra, mature domain SEQ ID NO: 24 (KVCTKPSKFFKGLCGTDGACTTACRKEGLHSGYCQLKGFLNSVCVCRKHC; HXL008 Picramnia pentandra mature domain aa)”?
Permeability index (Fgr hyphae): 0.9; permeabilization of Fgr hyphae (SYTOX green uptake), in words (Fgr hyphae): significantly more permeabilisation of Fgr hyphae; also recorded: permeabilizing; Permeability index (Fov hyphae): 0.8; permeabilization of Fov hyphae (SYTOX green uptake), in words (Fov hyphae): able to permeabilize Fov hyphae; also recorded: permeabilizing; Permeabilizing (hyphal cells): Yes

“HXL009: Class I plant defensin, Zea mays, mature domain SEQ ID NO: 27 (TVCMRHNNFYHGPCMSNKDCANSCVQHNLGVGGYCRGKIPFNKECMCTFEC; HXL009 Zea mays mature domain aa)” was tested. Which Permeability index (Fgr hyphae) did it give?
Its Permeability index is 0.4.

What about the “permeabilization of Fgr hyphae” value (Fgr hyphae) of the same substance?
The value was “non-permeabilizing”.

What about the Permeabilizing (hyphal cells) of the same substance?
Its Permeabilizing is “No”.

What does the source list for “HXL013: Class I plant defensin, Glycine max, mature domain SEQ ID NO: 39; Table 2 gives SBI6 the same SEQ ID NO (KDCLTRRHGFQGRCLFDRQCAHVCRSDGPIGGQCRGPLRKCFCSRPC; HXL013 Glycine max mature domain aa)”?
Permeability index (Fgr hyphae): 1.4; permeabilization of Fgr hyphae (SYTOX green uptake), in words (Fgr hyphae): permeabilizing; Permeabilizing (hyphal cells): Yes

For “HXL015: Class I plant defensin, Oryza sativa, mature domain SEQ ID NO: 45 (RHCLSQSHRFKGMCVSSNNCANVCRTESFPDGECKSHGLERKCFCKKVC; HXL015 Oryza sativa mature domain aa)”, which Permeabilizing (hyphal cells) is on record?
The Permeabilizing was “No”.

Which results are given for “HXL021: Class I plant defensin, Arachis hypogaea, mature domain SEQ ID NO: 63 (ATCENLADTYRGPCFTTGSCDDHCKNKEHLLSGRCRDDFRCWCTRNC; HXL021 Arachis hypogaea mature domain aa)”?
Permeability index (Fgr hyphae): 0.5; permeabilization of Fgr hyphae (SYTOX green uptake), in words (Fgr hyphae): non-permeabilizing; Permeabilizing (hyphal cells): No

For “HXP4: artificial variant defensin, SEQ ID NO: 70 (RECKTESHRFKGPCITKPPCRKACISEKFTDGHCSKILRRCLCTKPC; Amino acid sequence of HXP4 (NaD2 Loop1B [NaD2L1B] in NaD1))”, which Permeability index (Fgr hyphae) is on record?
The Permeability index was 1.3.

And the “permeabilization of Fgr hyphae” value (Fgr hyphae)?
The value was “significantly more permeabilisation of Fgr hyphae; also recorded: permeabilizing”.

What about the Permeability index (Fov hyphae) of the same substance?
Its Permeability index is 0.7.

And the “permeabilization of Fov hyphae (SYTOX green uptake), in words” value (Fov hyphae)?
The value was “able to permeabilize Fov hyphae; also recorded: permeabilizing”.

What about the Permeabilizing (hyphal cells) of the same substance?
The Permeabilizing was “Yes”.

With “HXP34: artificial variant defensin, SEQ ID NO: 71 (RECKTESQHHSFPCITKPPCRKACISEKFTDGHCSKILRRCLCTKPC; Amino acid sequence of HXP34 (Zea2 Loop1B [Zea2L1B] in NaD1))” as the substance, how does the Permeabilizing (hyphal cells) read?
Its Permeabilizing is “Yes”.

“HXP35: artificial variant defensin, SEQ ID NO: 72 (RECKTESDTYRGVCITKPPCRKACISEKFTDGHCSKILRRCLCTKPC; Amino acid sequence of HXP35 (PsD1 Loop1B [PsDL1B] in NaD1))” was tested. Which Permeabilizing (hyphal cells) did it give?
Its Permeabilizing is “Yes”.

Which results are given for “Hordothionin: Class I plant defensin, Hordeum vulgare, accession P20230”?
Permeability index (Fgr hyphae): 0.4; permeabilization of Fgr hyphae (SYTOX green uptake), in words (Fgr hyphae): non-permeabilizing; Permeabilizing (hyphal cells): No

What does the source list for “NaD1: Class II plant defensin, Nicotiana alata, accession Q8GTM0; positive control of the permeabilization assay (RECKTESNTFPGICITKPPCRKACISEKFTDGHCSKILRRCLCTKPC; UniProt Q8GTM0 26-72, looked up) [reference compound]”?
Permeability index (Fgr hyphae): 1.0; permeabilization of Fgr hyphae (SYTOX green uptake), in words (Fgr hyphae): significantly more permeabilisation of Fgr hyphae; also recorded: permeabilizing; Permeability index (Fov hyphae): 1.0; permeabilization of Fov hyphae (SYTOX green uptake), in words (Fov hyphae): able to permeabilize Fov hyphae; also recorded: permeabilizing; Permeabilizing (hyphal cells): Yes

How did the Permeabilizing (hyphal cells) turn out when “NoD173: Class II plant defensin, Nicotiana occidentalis, mature domain SEQ ID NO: 98 (RQCKAESNTFTGICIAKPPCRQACIREKFTDGHCSKVLRRCLCTKRC; NoD173 Nictoniana occidentalis)” was run?
Its Permeabilizing is “Yes”.

With “RsAFP2: Class I plant defensin, Raphanus sativus, accession P30230 (QKLCQRPSGTWSGVCGNNNACKNQCIRLEKARHGSCNYVFPAHKCICYFPC; ends and bridges not checked; cysteine pairing not given here; UniProt P30230 30-80, looked up)” as the substance, how does the Permeability index (Fgr hyphae) read?
Its Permeability index is 0.3.

What about the “permeabilization of Fgr hyphae” value (Fgr hyphae) of the same substance?
Its value is “non-permeabilizing”.

What about the Permeabilizing (hyphal cells) of the same substance?
Its Permeabilizing is “No”.

“VP42: Class I plant defensin, Triticum aestivum, mature domain SEQ ID NO: 81 (RHCESQSHRYRGACWRDDNCKHVCNTEGFPSGKCKFHGFESKCVCTKPC; VP42 mature domain)” was tested. Which Permeabilizing (hyphal cells) did it give?
The Permeabilizing was “No”.

How did the Permeabilizing (hyphal cells) turn out when “VP45: Class I plant defensin, Zea mays, mature domain SEQ ID NO: 83 (TVCMRHNNFYHGPCMSNKDCANSCVQHNLGVGGYCRGKIPFNKECMCTFEC; VP45 mature domain)” was run?
Its Permeabilizing is “No”.

“VP135: Class I plant defensin, Picramnia pentandra, mature domain SEQ ID NO: 85 (RICSSLSHGYKGPCASDHNCALVCRNEGFSGGDCHGLRRRCFCTKAC; VP135 mature domain)” was tested. Which Permeabilizing (hyphal cells) did it give?
The Permeabilizing was “No”.
